What was measured:
Assay in all cases: NanoBRET K192
Format in all cases: cell-based
Details in all cases: HEK293
MAP4K1 = biological target: T1, MAP4K1 (Homo sapiens, UniProt Q92918)
T1 construct: purchased Promega (NanoBRET Target Engagement K192 Kinase Selectivity System)
Procedure, shortened: (§1)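 HEK293 cells were transfected overnight with NanoLuc–kinase fusion vectors, then treated for 2 h at 37 °C with compound (added as 100 μM working solution) plus K10 tracer. BRET was read at 450/610 nm after substrate and extracellular inhibitor, and fractional occupancy was calculated against no-compound controls.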

TNK2 = biological target: T2, TNK2 (Homo sapiens, UniProt Q07912)
T2 construct: purchased Promega (NanoBRET Target Engagement K192 Kinase Selectivity System)
Procedure, shortened: as §1

STK35 = biological target: T3, STK35 (Homo sapiens, UniProt Q8TDR2)
T3 construct: purchased Promega (NanoBRET Target Engagement K192 Kinase Selectivity System)
Procedure, shortened: as §1

MAP3K4 = biological target: T4, MAP3K4 (Homo sapiens, UniProt Q9Y6R4)
T4 construct: purchased Promega (NanoBRET Target Engagement K192 Kinase Selectivity System)
T4 sequence (Q9Y6R4 whole entry): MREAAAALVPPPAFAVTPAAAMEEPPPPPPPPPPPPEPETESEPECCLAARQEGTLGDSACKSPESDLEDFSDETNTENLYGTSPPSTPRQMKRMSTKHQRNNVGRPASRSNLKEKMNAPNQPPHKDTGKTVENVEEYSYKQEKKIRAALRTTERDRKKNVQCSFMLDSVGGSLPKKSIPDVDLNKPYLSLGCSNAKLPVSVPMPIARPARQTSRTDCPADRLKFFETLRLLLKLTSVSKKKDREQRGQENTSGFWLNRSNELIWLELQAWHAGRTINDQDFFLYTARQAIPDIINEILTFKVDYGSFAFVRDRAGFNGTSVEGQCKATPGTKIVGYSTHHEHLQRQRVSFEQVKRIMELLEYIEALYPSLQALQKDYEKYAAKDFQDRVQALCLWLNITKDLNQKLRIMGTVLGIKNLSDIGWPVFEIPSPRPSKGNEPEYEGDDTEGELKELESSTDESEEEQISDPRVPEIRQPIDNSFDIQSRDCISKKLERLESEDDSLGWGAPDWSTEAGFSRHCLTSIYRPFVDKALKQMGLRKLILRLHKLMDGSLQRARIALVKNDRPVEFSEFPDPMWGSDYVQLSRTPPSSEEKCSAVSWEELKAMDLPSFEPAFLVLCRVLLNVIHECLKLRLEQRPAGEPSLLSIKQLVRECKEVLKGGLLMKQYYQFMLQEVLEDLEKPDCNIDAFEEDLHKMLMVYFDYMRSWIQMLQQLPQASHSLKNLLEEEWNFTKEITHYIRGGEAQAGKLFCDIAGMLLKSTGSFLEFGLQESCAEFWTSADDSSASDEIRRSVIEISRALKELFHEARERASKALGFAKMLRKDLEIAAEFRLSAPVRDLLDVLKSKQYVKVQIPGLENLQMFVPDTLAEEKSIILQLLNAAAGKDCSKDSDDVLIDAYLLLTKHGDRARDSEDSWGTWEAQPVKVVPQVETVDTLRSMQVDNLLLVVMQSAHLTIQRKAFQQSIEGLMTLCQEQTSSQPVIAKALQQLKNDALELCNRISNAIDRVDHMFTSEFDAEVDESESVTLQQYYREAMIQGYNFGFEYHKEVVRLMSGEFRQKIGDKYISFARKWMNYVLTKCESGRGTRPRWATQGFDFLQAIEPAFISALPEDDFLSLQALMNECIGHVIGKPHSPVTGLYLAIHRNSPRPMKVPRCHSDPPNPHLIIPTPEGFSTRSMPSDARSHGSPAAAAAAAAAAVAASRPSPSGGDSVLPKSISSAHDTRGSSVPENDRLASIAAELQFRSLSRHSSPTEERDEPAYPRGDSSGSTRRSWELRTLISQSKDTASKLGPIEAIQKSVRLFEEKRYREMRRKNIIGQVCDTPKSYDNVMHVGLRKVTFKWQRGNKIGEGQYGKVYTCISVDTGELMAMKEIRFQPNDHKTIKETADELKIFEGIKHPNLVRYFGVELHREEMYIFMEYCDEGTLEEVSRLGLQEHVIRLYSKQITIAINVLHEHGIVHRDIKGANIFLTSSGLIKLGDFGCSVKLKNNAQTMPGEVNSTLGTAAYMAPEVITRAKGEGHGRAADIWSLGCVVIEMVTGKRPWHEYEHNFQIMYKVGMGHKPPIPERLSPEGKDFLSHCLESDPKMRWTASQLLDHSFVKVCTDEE
Procedure, shortened: as §1

STK11 = biological target: T5, STK11 (Homo sapiens, UniProt Q15831)
T5 construct: purchased Promega (NanoBRET Target Engagement K192 Kinase Selectivity System)
T5 sequence (Q15831 whole entry): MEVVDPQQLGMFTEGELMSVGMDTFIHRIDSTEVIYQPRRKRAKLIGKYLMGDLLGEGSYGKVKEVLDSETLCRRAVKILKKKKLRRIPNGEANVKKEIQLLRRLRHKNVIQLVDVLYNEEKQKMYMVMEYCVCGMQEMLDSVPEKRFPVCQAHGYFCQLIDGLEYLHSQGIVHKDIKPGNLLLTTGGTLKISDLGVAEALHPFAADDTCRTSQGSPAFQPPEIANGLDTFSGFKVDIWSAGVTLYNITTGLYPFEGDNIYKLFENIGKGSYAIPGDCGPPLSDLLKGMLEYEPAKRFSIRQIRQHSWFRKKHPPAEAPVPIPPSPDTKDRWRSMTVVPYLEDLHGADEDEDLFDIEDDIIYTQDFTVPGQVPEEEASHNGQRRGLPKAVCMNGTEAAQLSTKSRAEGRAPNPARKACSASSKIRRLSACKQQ
Procedure, shortened: as §1

PRKACB = biological target: T6, PRKACB (Homo sapiens, UniProt P22694)
T6 construct: purchased Promega (NanoBRET Target Engagement K192 Kinase Selectivity System)
Procedure, shortened: as §1

PKMYT1 = biological target: T7, PKMYT1 (Homo sapiens, UniProt Q99640)
T7 construct: purchased Promega (NanoBRET Target Engagement K192 Kinase Selectivity System)
Procedure, shortened: as §1

ERN1 = biological target: T8, ERN1 (Homo sapiens, UniProt O75460)
T8 construct: purchased Promega (NanoBRET Target Engagement K192 Kinase Selectivity System)
Procedure, shortened: as §1

NEK11 = biological target: T9, NEK11 (Homo sapiens, UniProt Q8NG66)
T9 construct: purchased Promega (NanoBRET Target Engagement K192 Kinase Selectivity System)
Procedure, shortened: as §1

AKT2 = biological target: T10, AKT2 (Homo sapiens, UniProt P31751)
T10 construct: purchased Promega (NanoBRET Target Engagement K192 Kinase Selectivity System)
Procedure, shortened: as §1

STK36 = biological target: T11, STK36 (Homo sapiens, UniProt Q9NRP7)
T11 construct: host or cells: HEK293
Procedure, shortened: as §1

JAK3 = biological target: T12, JAK3 (Homo sapiens, UniProt P52333)
T12 construct: purchased Promega (NanoBRET Target Engagement K192 Kinase Selectivity System)
Procedure, shortened: as §1

MAP3K3 = biological target: T13, MAP3K3 (Homo sapiens, UniProt Q99759)
T13 construct: purchased Promega (NanoBRET Target Engagement K192 Kinase Selectivity System)
Procedure, shortened: as §1

SNRK = biological target: T14, SNRK (Homo sapiens, UniProt Q9NRH2)
T14 construct: host or cells: HEK293
Procedure, shortened: as §1

LIMK1 = biological target: T15, LIMK1 (Homo sapiens, UniProt P53667)
T15 construct: purchased Promega (NanoBRET Target Engagement K192 Kinase Selectivity System)
T15 sequence (P53667 whole entry): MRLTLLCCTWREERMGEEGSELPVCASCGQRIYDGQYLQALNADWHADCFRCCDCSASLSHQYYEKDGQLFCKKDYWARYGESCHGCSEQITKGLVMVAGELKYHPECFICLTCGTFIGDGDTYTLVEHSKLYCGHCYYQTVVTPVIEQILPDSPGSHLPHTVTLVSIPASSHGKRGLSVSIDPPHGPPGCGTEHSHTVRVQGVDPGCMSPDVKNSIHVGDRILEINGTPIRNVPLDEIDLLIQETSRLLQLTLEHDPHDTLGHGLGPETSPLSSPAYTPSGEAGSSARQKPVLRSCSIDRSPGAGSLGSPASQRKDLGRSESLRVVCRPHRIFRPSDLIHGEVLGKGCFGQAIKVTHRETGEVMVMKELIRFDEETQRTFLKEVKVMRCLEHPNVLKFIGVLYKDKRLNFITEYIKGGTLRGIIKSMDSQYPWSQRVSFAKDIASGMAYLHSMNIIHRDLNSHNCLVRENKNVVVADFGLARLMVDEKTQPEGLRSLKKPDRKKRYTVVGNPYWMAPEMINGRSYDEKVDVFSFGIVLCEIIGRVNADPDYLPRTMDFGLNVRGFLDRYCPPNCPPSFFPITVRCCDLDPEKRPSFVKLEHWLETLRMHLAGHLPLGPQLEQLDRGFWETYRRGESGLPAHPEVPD
Procedure, shortened: as §1

EPHA1 = biological target: T16, EPHA1 (Homo sapiens, UniProt P21709)
T16 construct: purchased Promega (NanoBRET Target Engagement K192 Kinase Selectivity System)
Procedure, shortened: as §1

LIMK2 = biological target: T17, LIMK2 (Homo sapiens, UniProt P53671)
T17 construct: purchased Promega (NanoBRET Target Engagement K192 Kinase Selectivity System)
Procedure, shortened: as §1

MAP4K2 = biological target: T18, MAP4K2 (Homo sapiens, UniProt Q12851)
T18 construct: purchased Promega (NanoBRET Target Engagement K192 Kinase Selectivity System)
Procedure, shortened: as §1

SIK1 = biological target: T19, SIK1 (Homo sapiens, UniProt P57059)
T19 construct: purchased Promega (NanoBRET Target Engagement K192 Kinase Selectivity System)
Procedure, shortened: as §1

PRKAA1 = biological target: T20, PRKAA1 (Homo sapiens, UniProt Q13131)
T20 construct: purchased Promega (NanoBRET Target Engagement K192 Kinase Selectivity System)
Procedure, shortened: as §1

IGF1R = biological target: T21, IGF1R (Homo sapiens, UniProt P08069)
T21 construct: host or cells: HEK293
Procedure, shortened: as §1

CDKL2 = biological target: T22, CDKL2 (Homo sapiens, UniProt Q92772)
T22 construct: purchased Promega (NanoBRET Target Engagement K192 Kinase Selectivity System)
Procedure, shortened: as §1

MAP3K19 = biological target: T23, MAP3K19 (Homo sapiens, UniProt Q56UN5)
T23 construct: purchased Promega (NanoBRET Target Engagement K192 Kinase Selectivity System)
T23 sequence (Q56UN5 whole entry): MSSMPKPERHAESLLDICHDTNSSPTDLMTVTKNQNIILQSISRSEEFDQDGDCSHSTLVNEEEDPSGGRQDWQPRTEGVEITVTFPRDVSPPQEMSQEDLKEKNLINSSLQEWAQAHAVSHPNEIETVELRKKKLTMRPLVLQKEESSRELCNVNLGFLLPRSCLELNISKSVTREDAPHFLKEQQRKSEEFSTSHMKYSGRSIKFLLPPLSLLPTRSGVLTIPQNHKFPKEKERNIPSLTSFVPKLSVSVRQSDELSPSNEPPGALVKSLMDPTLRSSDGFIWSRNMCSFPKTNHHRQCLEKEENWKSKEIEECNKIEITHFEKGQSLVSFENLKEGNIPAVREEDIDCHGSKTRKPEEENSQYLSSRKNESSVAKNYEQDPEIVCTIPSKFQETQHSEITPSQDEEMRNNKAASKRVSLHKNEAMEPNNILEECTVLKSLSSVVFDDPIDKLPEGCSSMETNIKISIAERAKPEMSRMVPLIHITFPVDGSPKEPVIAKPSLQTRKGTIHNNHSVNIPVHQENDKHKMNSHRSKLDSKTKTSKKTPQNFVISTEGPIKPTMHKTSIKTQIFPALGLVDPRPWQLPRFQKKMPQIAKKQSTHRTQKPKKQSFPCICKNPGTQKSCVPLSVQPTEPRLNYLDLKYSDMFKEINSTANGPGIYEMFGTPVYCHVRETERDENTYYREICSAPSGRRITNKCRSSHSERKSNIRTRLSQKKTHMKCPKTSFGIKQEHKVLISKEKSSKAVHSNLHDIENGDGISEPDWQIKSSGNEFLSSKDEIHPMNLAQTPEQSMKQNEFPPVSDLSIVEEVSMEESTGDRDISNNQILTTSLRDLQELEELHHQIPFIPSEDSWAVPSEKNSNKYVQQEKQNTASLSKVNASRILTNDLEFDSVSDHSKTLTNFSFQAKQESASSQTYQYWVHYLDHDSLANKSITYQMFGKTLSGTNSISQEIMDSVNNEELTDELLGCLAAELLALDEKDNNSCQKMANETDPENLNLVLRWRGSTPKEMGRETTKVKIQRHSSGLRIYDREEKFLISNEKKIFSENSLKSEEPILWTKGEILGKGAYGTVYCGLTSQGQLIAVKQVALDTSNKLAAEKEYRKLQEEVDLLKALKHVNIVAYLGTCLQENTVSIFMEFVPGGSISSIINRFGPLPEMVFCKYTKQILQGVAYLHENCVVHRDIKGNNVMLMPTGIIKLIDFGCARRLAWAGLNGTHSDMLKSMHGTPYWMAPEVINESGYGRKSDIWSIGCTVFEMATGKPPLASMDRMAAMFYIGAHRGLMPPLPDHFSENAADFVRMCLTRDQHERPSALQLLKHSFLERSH
Procedure, shortened: as §1

PLK4 = biological target: T24, PLK4 (Homo sapiens, UniProt O00444)
T24 construct: purchased Promega (NanoBRET Target Engagement K192 Kinase Selectivity System)
Procedure, shortened: as §1

MAPK6 = biological target: T25, MAPK6 (Homo sapiens, UniProt Q16659)
T25 construct: purchased Promega (NanoBRET Target Engagement K192 Kinase Selectivity System)
Procedure, shortened: as §1

CDK2 + E1 = biological target: T26, CDK2 + E1 (Homo sapiens, UniProt P24941)
T26 construct: purchased Promega (NanoBRET Target Engagement K192 Kinase Selectivity System)
Procedure, shortened: as §1

RPS6KA4 = biological target: T27, RPS6KA4 (Homo sapiens, UniProt O75676)
T27 construct: purchased Promega (NanoBRET Target Engagement K192 Kinase Selectivity System)
T27 sequence (O75676 whole entry): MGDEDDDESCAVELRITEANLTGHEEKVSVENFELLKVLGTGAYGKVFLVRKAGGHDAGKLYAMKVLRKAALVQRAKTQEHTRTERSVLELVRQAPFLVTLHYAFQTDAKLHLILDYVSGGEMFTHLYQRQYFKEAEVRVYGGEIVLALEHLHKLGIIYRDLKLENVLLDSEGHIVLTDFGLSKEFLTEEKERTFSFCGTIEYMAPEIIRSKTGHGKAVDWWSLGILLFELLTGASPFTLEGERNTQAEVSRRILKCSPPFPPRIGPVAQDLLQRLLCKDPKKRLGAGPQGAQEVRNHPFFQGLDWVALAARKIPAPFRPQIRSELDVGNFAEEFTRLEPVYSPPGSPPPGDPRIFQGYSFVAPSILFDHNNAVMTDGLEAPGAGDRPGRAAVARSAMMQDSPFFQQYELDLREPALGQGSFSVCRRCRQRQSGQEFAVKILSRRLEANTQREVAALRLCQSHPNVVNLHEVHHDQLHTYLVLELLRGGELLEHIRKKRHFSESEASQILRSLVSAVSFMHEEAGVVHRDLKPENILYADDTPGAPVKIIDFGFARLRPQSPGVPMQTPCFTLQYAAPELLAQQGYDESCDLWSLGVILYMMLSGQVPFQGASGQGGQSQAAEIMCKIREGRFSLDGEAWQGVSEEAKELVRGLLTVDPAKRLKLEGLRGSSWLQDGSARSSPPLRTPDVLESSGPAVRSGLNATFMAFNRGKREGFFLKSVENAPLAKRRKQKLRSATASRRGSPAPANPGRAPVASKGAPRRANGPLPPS
Procedure, shortened: as §1

BRAF(V600E) = biological target: T28, BRAF(V600E) (Homo sapiens, UniProt P15056, V600E)
T28 construct: purchased Promega (NanoBRET Target Engagement K192 Kinase Selectivity System)
Procedure, shortened: as §1

For `CCC(=O)Nc1cc(Nc2cc(NC3CC3)n3ncc(C#N)c3n2)c(F)cc1N1CCC[C@H](NC)C1` [Compound 2, (S)-N-(5-((3-cyano-7-(cyclopropylamino)pyrazolo[1,5-a]pyrimidin-5-yl)amino)-4-fluoro-2-(3-(methylamino)piperidin-1-yl)phenyl)propionamide], the receptor occupancy at 10 µM (MAP4K1) was 5.1%, the receptor occupancy at 10 µM (TNK2) was 12.5% and the receptor occupancy at 10 µM (STK35) was 6.5%. The receptor occupancy at 10 µM (MAP3K4) was 4.9%, the receptor occupancy at 10 µM (STK11) was 0.1% and the receptor occupancy at 10 µM (PRKACB) was 9.2%. The receptor occupancy at 10 µM (PKMYT1) was 5.5%, the receptor occupancy at 10 µM (ERN1) was 3% and the receptor occupancy at 10 µM (NEK11) was 19.1%. For the same compound, the receptor occupancy at 10 µM (AKT2) was 5.3%, the receptor occupancy at 10 µM (STK36) was -7.6% and the receptor occupancy at 10 µM (JAK3) was 4.6%. It also gave a receptor occupancy at 10 µM (MAP3K3) of 10.1%, a receptor occupancy at 10 µM (SNRK) of -2% and a receptor occupancy at 10 µM (LIMK1) of 6.6%. It also gave a receptor occupancy at 10 µM (EPHA1) of 7.7%, a receptor occupancy at 10 µM (LIMK2) of 1.1% and a receptor occupancy at 10 µM (MAP4K2) of 31.4%. The receptor occupancy at 10 µM (SIK1) was 6.4%, the receptor occupancy at 10 µM (PRKAA1) was 3.8% and the receptor occupancy at 10 µM (IGF1R) was -2.6%. The receptor occupancy at 10 µM (CDKL2) was 13.6%, the receptor occupancy at 10 µM (MAP3K19) was 2.4% and the receptor occupancy at 10 µM (PLK4) was 3.8%. The receptor occupancy at 10 µM (MAPK6) was 14.6%, the receptor occupancy at 10 µM (CDK2 + E1) was 15.9% and the receptor occupancy at 10 µM (RPS6KA4) was 6.4%. It also gave a receptor occupancy at 10 µM (BRAF(V600E)) of 5.3%.

From publication PMC11397024, “Strategic Fluorination to Achieve a Potent, Selective, Metabolically Stable, and Orally Bioavailable Inhibitor of CSNK2” (Molecules, 2024)
